# Source: US20230108906A1, “SUBSTITUTED BICYCLIC AND TRICYCLIC UREAS AND AMIDES, ANALOGUES THEREOF, AND METHODS USING SAME” (Arbutus Biopharma Corporation, priority 2019, published 2023)
# System: HBV rcDNA in HepDE19 cells
# Assay: HepDE19 assay with bDNA quantitation of HBV rcDNA
# Format: cell-based, hepatitis B virus (HBV)
# Settings: Hepatitis B virus, HepDE19, 168 h, inhibition of rcDNA formation in HepDE19 cells (HepG2 derived), Tet-free medium, 7 day incubation, Quantigene 2.0 bDNA readout, top concentration 25 μM; read-out: DE-19bDNA EC50
# Summary of the method: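 Cytotoxicity run on replicate plates (5,000 cells/well, 4 days, ATP luminescence, CC50), while antiviral plates (50,000 cells/well) received compound for 7 days after tetracycline withdrawal to induce HBV replication. Top dose 25 μM, 8 points, 0.5% DMSO; rcDNA by branched-DNA assay, % inhibition fitted (4-parameter) for EC50 and EC90.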
row,SMILES,EC50 [µM]
1,"CN(C(=O)Nc1ccc(F)c(Cl)c1)C1CCCc2[nH]c(=O)c3c(c21)COCC3 (single isomer, unassigned) [Compound 79, 3-(3-Chloro-4-fluorophenyl)-1-methyl-1-(5-oxo-3,4,5,6,7,8,9,10-octahydro-1H-pyrano[4,3-c]quinolin-10-yl)urea]",≥ 25
2,"CN(C(=O)Nc1ccc(F)c(Cl)c1)C1CCCc2[nH]c(=O)c3cc(F)cc(F)c3c21 (stereo not shown) [Compound 20, 3-(3-Chloro-4-fluorophenyl)-1-(8,10-difluoro-6-oxo-1,2,3,4,5,6-hexahydrophenanthridin-1-yl)-1-methylurea]",0.51
3,"CCN(C(=O)Nc1ccc(F)c(Cl)c1)[C@@H]1COCc2[nH]c(=O)c3cc(F)ccc3c21 (single isomer, unassigned) [Compound 87]",0.01
4,"CN(C(=O)Nc1ccc(F)c(C(F)F)c1)C1COCc2nc(NCCN)c3cc(F)c(F)cc3c21 (racemic) [Compound 239, 1-(6-((2-Aminoethyl)amino)-8,9-difluoro-1,4-dihydro-2H-pyrano[3,4-c]isoquinolin-1-yl)-3-(3-(difluoromethyl)-4-fluorophenyl)-1-methylurea]",0.3
5,"CN(C(=O)Nc1ccc(F)c(Cl)c1)C1COCc2[nH]c(=O)c3cc(Cl)ccc3c21 (stereo not shown) [Compound 55, 3-(3-Chloro-4-fluorophenyl)-1-(8-chloro-6-oxo-1,4,5,6-tetrahydro-2H-pyrano[3,4-c]isoquinolin-1-yl)-1-methylurea]",0.05
6,"CN(C(=O)Nc1ccc(F)c(C#N)c1)C1CS(=O)(=O)Cc2[nH]c(=O)c3cc(F)ccc3c21 (racemic) [Compound 215, 3-(3-Cyano-4-fluorophenyl)-1-(8-fluoro-3,3-dioxido-6-oxo-1,4,5,6-tetrahydro-2H-thiopyrano[3,4-c]isoquinolin-1-yl)-1-methylurea]",≥ 25
7,"CN1Cc2[nH]c(=O)c3cc(F)c(F)cc3c2C(N(C)C(=O)Nc2ccc(F)c(C#N)c2)C1 (stereo not shown) [Compound 173, 3-(3-Cyano-4-fluorophenyl)-1-(8,9-difluoro-3-methyl-6-oxo-1,2,3,4,5,6-hexahydrobenzo[c][1,7]naphthyridin-1-yl)-1-methylurea]",13
8,"CN(C(=O)Nc1ccc(F)c(Cl)c1)C1COCc2[nH]c(=O)c3ccc(F)cc3c21 (stereo not shown) [Compound 73, 3-(3-Chloro-4-fluorophenyl)-1-(9-fluoro-6-oxo-1,4,5,6-tetrahydro-2H-pyrano[3,4-c]isoquinolin-1-yl)-1-methylurea]",0.02
9,"CN(C(=O)Nc1ccc(F)c(C(F)F)c1)C1COCc2[nH]c(=O)c3cc(F)ccc3c21 (stereo not shown) [Compound 124, 3-(3-(Difluoromethyl)-4-fluorophenyl)-1-(8-fluoro-6-oxo-1,4,5,6-tetrahydro-2H-pyrano[3,4-c]isoquinolin-1-yl)-1-methylurea]",0.01
10,"CN(C(=O)Nc1ccc(F)c(C#N)c1)[C@@H]1COCc2[nH]c(=O)c3cc(F)c(F)cc3c21 (single isomer, unassigned) [Compound 70]",0.01
11,"COc1nc2c(c3ccccc13)C(N(C)C(=O)Nc1ccc(F)c(Cl)c1)CCC2 (stereo not shown) [Compound 34, 3-(3-Chloro-4-fluorophenyl)-1-(6-methoxy-1,2,3,4-tetrahydrophenanthridin-1-yl)-1-methylurea]",1.8

# Same assay, conditions: Hepatitis B virus, HepDE19, 168 h, read-out: DE-19bDNA EC50 (uM), inhibition of rcDNA formation in HepDE19 cells (HepG2 derived), Tet-free medium, 7 day incubation, Quantigene 2.0 bDNA readout, top concentration 25 μM
row,SMILES,EC50 [µM]
1,"CN(C(=O)N1Cc2ccc(C(F)(F)F)cc2C1)C1CNCc2[nH]c(=O)c3cc(F)c(F)cc3c21 (single isomer, unassigned) [Compound 231, N-(8,9-Difluoro-6-oxo-1,2,3,4,5,6-hexahydrobenzo[c][1,7]naphthyridin-1-yl)-N-methyl-5-(trifluoromethyl)isoindoline-2-carboxamide]",≥ 25

# Same assay, conditions: inhibition of rcDNA formation in HepDE19 cells (HepG2 derived), Tet-free medium, 7 day incubation, Quantigene 2.0 bDNA readout, top concentration 25 μM; read-out: DE-19bDNA EC50
row,SMILES,EC50 [µM]
1,"CN(C(=O)Nc1ccc(F)c(C#N)c1)C1C[S+]([O-])Cc2[nH]c(=O)c3cc(F)c(F)cc3c21 (single isomer, unassigned) [Compound 214, 3-(3-Cyano-4-fluorophenyl)-1-(8,9-difluoro-3-oxido-6-oxo-1,4,5,6-tetrahydro-2H-thiopyrano[3,4-c]isoquinolin-1-yl)-1-methylurea]",15
2,"CN(C(=O)Nc1ccc(F)c(F)c1)C1CNCc2[nH]c(=O)c3cc(F)c(F)cc3c21 (single isomer, unassigned) [Compound 191, 1-(8,9-Difluoro-6-oxo-1,2,3,4,5,6-hexahydrobenzo[c][1,7]naphthyridin-1-yl)-3-(3,4-difluorophenyl)-1-methylurea]",3
3,"CC(C)CN(C(=O)Nc1ccc(F)c(F)c1)C1COCc2[nH]c(=O)c3cc(F)ccc3c21 (single isomer, unassigned) [Compound 99, 3-(3,4-Difluorophenyl)-1-(8-fluoro-6-oxo-2,4,5,6-tetrahydro-1H-pyrano[3,4-c]isoquinolin-1-yl)-1-isobutylurea]",0.01
4,"CC(=O)N1Cc2[nH]c(=O)c3cc(F)c(F)cc3c2C(N(C)C(=O)Nc2ccc(F)c(Cl)c2)C1 (single isomer, unassigned) [Compound 159, 1-(3-Acetyl-8,9-difluoro-6-oxo-1,2,3,4,5,6-hexahydrobenzo[c][1,7]naphthyridin-1-yl)-3-(3-chloro-4-fluorophenyl)-1-methylurea]",12
5,"CN(C(=O)Nc1ccc(F)c(F)c1)C1CCCc2[nH]c(=O)c3c(c21)CCCC3 (single isomer, unassigned) [Compound 49, 3-(3,4-Difluorophenyl)-1-methyl-1-(6-oxo-1,2,3,4,5,6,7,8,9,10-decahydrophenanthridin-1-yl)urea]",0.16
6,"CN(C(=O)Nc1ccc(F)c(Cl)c1)C1CCCc2[nH]c(=O)c3c(c21)CCOC3 (single isomer, unassigned) [Compound 61, 3-(3-Chloro-4-fluorophenyl)-1-methyl-1-(5-oxo-1,4,5,6,7,8,9,10-octahydro-2H-pyrano[3,4-c]quinolin-10-yl)urea]",5.1
7,"CN(C(=O)Nc1ccc(F)c(C(F)F)c1)C1COCc2nc(NCCN)c3cc(F)c(F)cc3c21 (single isomer, unassigned) [Compound 247, 1-(6-((2-Aminoethyl)amino)-8,9-difluoro-1,4-dihydro-2H-pyrano[3,4-c]isoquinolin-1-yl)-3-(3-(difluoromethyl)-4-fluorophenyl)-1-methylurea]",0.08
8,"CC(=O)N1Cc2[nH]c(=O)c3cc(F)c(F)cc3c2C(N(C)C(=O)Nc2ccc(F)c(Cl)c2)C1 (single isomer, unassigned) [Compound 160, 1-(3-Acetyl-8,9-difluoro-6-oxo-1,2,3,4,5,6-hexahydrobenzo[c][1,7]naphthyridin-1-yl)-3-(3-chloro-4-fluorophenyl)-1-methylurea]",0.82
9,"CN(C(=O)N1Cc2ccc(Br)cc2C1)C1CNCc2[nH]c(=O)c3cc(F)c(F)cc3c21 (single isomer, unassigned) [Compound 229, 5-Bromo-N-(8,9-difluoro-6-oxo-1,2,3,4,5,6-hexahydrobenzo[c][1,7]naphthyridin-1-yl)-N-methylisoindoline-2-carboxamide]",6.7
10,"CN(C(=O)N1Cc2ccc(Br)cc2C1)C1CNCc2[nH]c(=O)c3cc(F)c(F)cc3c21 (single isomer, unassigned) [Compound 228, 5-Bromo-N-(8,9-difluoro-6-oxo-1,2,3,4,5,6-hexahydrobenzo[c][1,7]naphthyridin-1-yl)-N-methylisoindoline-2-carboxamide]",15
11,"CN(C(=O)Nc1ccc(F)c(Cl)c1)C1CCCc2[nH]c(=O)c3cc(F)c(F)cc3c21 (stereo not shown) [Compound 38, 3-(3-Chloro-4-fluorophenyl)-1-(8,9-difluoro-6-oxo-1,2,3,4,5,6-hexahydrophenanthridin-1-yl)-1-methylurea]",1
12,"CN(C(=O)Nc1ccc(F)c(C#N)c1)C1CSCc2[nH]c(=O)c3cc(F)c(F)cc3c21 (single isomer, unassigned) [Compound 189, 3-(3-Cyano-4-fluorophenyl)-1-(8,9-difluoro-6-oxo-1,4,5,6-tetrahydro-2H-thiopyrano[3,4-c]isoquinolin-1-yl)-1-methylurea]",0.88
13,"NS(=O)(=O)CCN(C(=O)Nc1ccc(F)c(Cl)c1)C1COCc2[nH]c(=O)c3cc(F)c(F)cc3c21 (single isomer, unassigned) [Compound 137, 2-(3-(3-Chloro-4-fluorophenyl)-1-(8,9-difluoro-6-oxo-1,4,5,6-tetrahydro-2H-pyrano[3,4-c]isoquinolin-1-yl)ureido)ethane-1-sulfonamide]",0.01
14,"CN(C(=O)Nc1ccc(F)c(F)c1)C1COCc2[nH]c(=O)c3c(c21)COCC3 (single isomer, unassigned) [Compound 86, 3-(3,4-Difluorophenyl)-1-methyl-1-(5-oxo-1,3,4,5,6,7,9,10-octahydrodipyrano[3,4-b:3′,4′-d]pyridin-10-yl)urea]",≥ 25
15,"CN(C(=O)Nc1ccc(F)c(C#N)c1)C1CN(CCO)Cc2[nH]c(=O)c3cc(F)c(F)cc3c21 (single isomer, unassigned) [Compound 181, 3-(3-Cyano-4-fluorophenyl)-1-(8,9-difluoro-3-(2-hydroxyethyl)-6-oxo-1,2,3,4,5,6-hexahydrobenzo[c][1,7]naphthyridin-1-yl)-1-methylurea]",≥ 25
16,"CN(C(=O)Nc1ccc(F)c(C#N)c1)C1C[S+]([O-])Cc2[nH]c(=O)c3cc(F)ccc3c21 (single isomer, unassigned) [Compound 199, 3-(3-Cyano-4-fluorophenyl)-1-(8-fluoro-3-oxido-6-oxo-1,4,5,6-tetrahydro-2H-thiopyrano[3,4-c]isoquinolin-1-yl)-1-methylurea]",20
